Measurements taken from ChEMBL document CHEMBL1152053, “Nonpeptide HIV protease inhibitors designed to replace a bound water” (Bioorg Med Chem Lett, 1993).
pKi: −log10 of the molar value.

Molecular target: Human immunodeficiency virus type 1 protease (Human immunodeficiency virus 1, UniProt Q72874)
Experiment: Compound was evaluated for the inhibition of recombinant HIV-1 protease at 37 degrees C and pH of 6.

| Compound | pKi |
| --- | --- |
| OC[C@]1(Cc2ccccc2)C[C@H](O)C[C@](CO)(Cc2ccccc2)[C@H]1O | 4.32 |
| OC[C@]1(Cc2ccccc2)C[C@H](O)C[C@](CO)(Cc2ccccc2)[C@@H]1O | 3.08 |
| OC1[C@@](O)(Cc2ccccc2)CCC[C@]1(O)Cc1ccccc1 | < 2.70 |
| O=C1C[C@](O)(Cc2ccccc2)C(O)[C@@](O)(Cc2ccccc2)C1 | 5.00 |
| O[C@H]1C[C@H](Cc2ccccc2)[C@H](O)[C@@H](Cc2ccccc2)C1 | < 2.70 |
| O=C1C[C@](CO)(Cc2ccccc2)C(O)[C@@](CO)(Cc2ccccc2)C1 | 4.21 |
| [O-][S+]1C[C@](CO)(Cc2ccccc2)C(O)[C@@](CO)(Cc2ccccc2)C1 (stereo in doubt; (+)7) | 5.15 |
| [O-][S+]1C[C@](CO)(Cc2ccccc2)C(O)[C@@](CO)(Cc2ccccc2)C1 (stereo in doubt; (-)7) | 4.72 |
